Data as given in publication PMC5352051, “Identification of a novel Polo-like kinase 1 inhibitor that specifically blocks the functions of Polo-Box domain” (Oncotarget, 2016).

Key:
HeLa cells = assay: Immunofluorescence assay, mitotic phase distribution; format: cell-based, human; details: 10 hrs; for percentage of prometaphase cells: synchronized HeLa, control 23.3%
Method: To determine mitotic phase distribution, about 50 mitotic cells were analyzed. Cells were classified according to the structure and alignment of the chromosomes as well as the number and location of the centrosomes. All experiments were performed in triplicate. For confocal microscopy, HeLa cells grown on coverslips were fixed and permeabilized in methanol for 15 min at −20°C and then incubated with blocking buffer (PBS with 0.1% Triton X-100 and 5% BSA) for 2 hrs at RT. And then the coverslips were followed by washing and incubation with primary antibodies and fluorophore-conjugated secondary antibodies for 1 hr at RT, respectively. All antibodies were diluted in blocking buffer and the coverslips were washed three times with PBST, and then all coverslips were treated with 4',6-diamidino-2-phenylindole (DAPI) (Sigma; 2 μg/mL) for 2 min at RT, washed again and mounted onto slides using ProLong Diamond Antifade Mountant (Cat# 36961; Molecular Probes). Immunofluorescence images were taken with Olympus FV1000 Confocal Laser Microscope (Olympus, Japan) at 600×magnification. All images were processed using FV10-ASW 3.0 Viewer Software System (Olympus, Japan). The following antibodies were used: anti-α-Tubulin mouse monoclonal antibody (Cat# T9026; Sigma; 1:800), anti-γ-Tubulin rabbit polyclonal antibody (Cat# T3559; Sigma; 1:1500), Alex Fluor 488-conjugated goat anti-mouse IgG (Cat# A-11011; Molecular Probes; 1:1000) and Alex Fluor 594-conjugated donkey anti-rabbit IgG (Cat# A-21207; Molecular Probes; 1:1000).

[1] = system: PARP cleavage in HeLa cells; assay: Western blot of PARP cleavage; format: cell-based, human; details: 24 hrs
Method: We also performed a western blot assay to examine PARP cleavage, and the protocol was similar as describe above. Equal amount of proteins (30 μg/lane) were loaded, separated by 12% SDS-PAGE. Anti-PARP rabbit polyclonal antibody (Cat# 9542P; Cell Signaling Technology; 1:1500) was used as primary antibody. GAPDH was used as the loading control.

Plk1 PBD = biological target: T1, Plk1 PBD (Homo sapiens, UniProt P53350); assay: Circular dichroism spectroscopy; details: complex with T521
T1 construct: (326-603 aa), Plk2 (355-685 aa), and Plk3 (335-646 aa); 6xHis (N); 6xHis (C); made in house; host or cells: E. coli Rosetta BL21(DE3)
Method: PAGE, and then the stained band was excised from The raw data was processed using Proteome the polyacrylamide gel, washed twice with water, and Discoverer software (Thermo Fischer). MS2 spectra destained with 40% ACN/50 mM NH4HCO3. The gel were searched with SEQUEST engine against target Plk1 pieces were dehydrated with 100% ACN and dried for protein and common pollution proteins database (246 5 min using a speedvac. Disulfide bonds were reduced Protein Sequences). Database searches were performed by treatment with DTT (10 mM, 56°C, 45 min), and the with the following parameters: precursor mass tolerance free sulfhydryl groups were alkylated with iodoacetamide 20 ppm; MS/MS mass tolerance 0.6 Da; two missed (55 mM, 25°C, 60 min in the dark). After drying with cleavage for tryptic peptides; variable modifications a speedvac, the gel was rehydrated using 100 ng/μL oxidation (M), T521 fragment modification (+301.02) trypsin (50 mM NH4HCO3, pH8.3) on ice for 30 min, (K, R), fixed modification Carbamidomethyl (C), the and the digestion was carried out at 37°C for 60 min and results were filtered for a 1% false discovery rate (FDR) then quenched with 1.0% FA. The tryptic peptides were at the PSM level utilizing the percolator-based algorithm. extracted twice with 60% ACN containing 0.1% FA, and Peptide identifications were grouped into proteins then the combined digest solution was concentrated to 25 according to the law of parsimony. […]
B; 90–91 min, 80%–4% B; 91–100 min, 4% B. Eluting the calculation of mean residue ellipticity. […] Three MS spectra were acquired from m/z 300 to m/z 1,800, and independent experiments were performed for each sample. the 10 most intense ions with charges more than 2 and Spectral deconvolution of CD data was performed using above an intensity threshold 500 were fragmented in the CDNN to determine relative quantities of α-helix, linear ion trap using normalized collision energy of 35%. β-sheet, β-turn and random coil. […]

MG63 = assay: MTT assay; format: cell-based; details: Homo sapiens, MG-63; MG63, Bone, tumor; read-out: IC50 proliferation
Method: (§1) The MTT assay was performed as described. In brief, cells were seeded at 3000~5000 cells/well into 96-well plates (200 μL/well) and incubated overnight. We replaced the growth medium with fresh medium containing T521 at several concentrations (two-fold dilutions and the initial concentration is 50 μM, 10 reactions total). After further incubation for 48 hrs in the presence of T521, the medium was removed from all wells and the cells were incubated with 200 μL of fresh medium for additional 24 hrs. We then added 22 μL of MTT solution (Amresco; 5 mg/mL in PBS) to each well and incubated the plate for 4 hrs at 37°C. After removing the medium, we dissolved the purple MTT-formazan crystals by adding 150 μL of DMSO to each well and recorded absorbance at 560 nm by Envision Multilabel Reader (PerkinElmer). The inhibition curve was plotted to determine the IC50 of various cell lines using GraphPad Prism5.0.

[2] = system: normal cell lines, MRC5, HEK-293 and L02 cells; assay: MTT assay, panel of normal cell lines; format: cell-based; details: Homo sapiens; three exponentially growing normal cell lines; read-out: IC50 proliferation, range over cell lines
Method: as §1

T1 sequence (P53350 326-603): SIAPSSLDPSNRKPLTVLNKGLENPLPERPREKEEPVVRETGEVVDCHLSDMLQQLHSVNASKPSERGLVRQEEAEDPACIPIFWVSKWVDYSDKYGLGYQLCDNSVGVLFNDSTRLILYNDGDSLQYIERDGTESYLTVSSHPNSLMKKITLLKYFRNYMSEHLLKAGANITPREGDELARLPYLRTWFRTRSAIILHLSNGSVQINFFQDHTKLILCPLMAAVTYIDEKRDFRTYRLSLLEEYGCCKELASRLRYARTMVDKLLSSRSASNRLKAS

## CCS(=O)(=O)c1oc(-c2ccc(F)cc2)nc1S(=O)(=O)c1ccccc1 [T521, 5-(ethylsulfonyl)-2-(4-fluorophenyl)-4-(phenylsulfonyl) oxazole]
HeLa cells; 5 μM
  percentage of prometaphase cells: 32.7%
HeLa cells; 10 μM
  percentage of prometaphase cells: 56.0%
HeLa cells; 15 μM
  percentage of prometaphase cells: 76.2%
HeLa cells; synchronized HeLa, 5, 10, 15 μM
  metaphase cells with chromosome alignment defects: remarkable increase
[1]
  PARP cleavage: increase of PARP cleavage
Plk1 PBD; native Plk1 PBD 21.08%
  β-turn composition of Plk1 PBD complex: 29.59%
Plk1 PBD; native Plk1 PBD 26.18%
  α-helix composition of Plk1 PBD complex: 11.63%
Plk1 PBD; native Plk1 PBD 34.80%
  random coil composition of Plk1 PBD complex: 41.46%
MG63
  IC50: 6.25 µM
[2]
  IC50: 3 to 10 µM
